Measurements published in ChEMBL document CHEMBL2440076, “New triarylpyrazoles as broad-spectrum anticancer agents: design, synthesis, and biological evaluation” (Eur J Med Chem, 2013).

Columns and labels:
Assay type in all cases: functional
[1] = system: MDA-MB-435; assay: Growth inhibition of human MDA-MB-435 cells assessed as cell growth at 5X10'-5 M after 48 hrs by sulforhodamine B assay; conditions: MDA-MB-435, 48 h, read-out: Activity
[2] = system: SR; assay: Growth inhibition of human SR cells assessed as cell growth at 5X10'-5 M after 48 hrs by sulforhodamine B assay; conditions: read-out: Activity
[3] = system: RPMI-8226; assay: Growth inhibition of human RPMI8226 cells assessed as cell growth at 5X10'-5 M after 48 hrs by sulforhodamine B assay; conditions: RPMI-8226, 48 h, read-out: Activity
[4] = system: CCRF-CEM; assay: Growth inhibition of human CCRF-CEM cells assessed as cell growth at 5X10'-5 M after 48 hrs by sulforhodamine B assay; conditions: read-out: Activity
[5] = system: PC-3; assay: Growth inhibition of human PC3 cells assessed as cell growth at 5X10'-6 M after 48 hrs by sulforhodamine B assay; conditions: PC-3, 48 h, read-out: Activity
[6] = system: TK-10; assay: Growth inhibition of human TK10 cells assessed as cell growth at 5X10'-6 M after 48 hrs by sulforhodamine B assay; conditions: TK-10, 48 h, read-out: Activity
[7] = system: OVCAR-5; assay: Growth inhibition of human OVCAR5 cells assessed as cell growth at 5X10'-6 M after 48 hrs by sulforhodamine B assay; conditions: OVCAR-5, 48 h, read-out: Activity
[8] = system: UACC-257; assay: Growth inhibition of human UACC257 cells assessed as cell growth at 5X10'-6 M after 48 hrs by sulforhodamine B assay; conditions: UACC-257, 48 h, read-out: Activity
[9] = system: SK-MEL-28; assay: Growth inhibition of human SK-MEL-28 cells assessed as cell growth at 5X10'-6 M after 48 hrs by sulforhodamine B assay; conditions: SK-MEL-28, 48 h, read-out: Activity
[10] = system: SK-MEL-5; assay: Growth inhibition of human SK-MEL-5 cells assessed as cell growth at 5X10'-6 M after 48 hrs by sulforhodamine B assay; conditions: SK-MEL-5, 48 h, read-out: Activity
[11] = system: NCI-H522; assay: Growth inhibition of human NCI-H522 cells assessed as cell growth at 5X10'-9 M after 48 hrs by sulforhodamine B assay; conditions: NCI-H522, 48 h, read-out: Activity
[12] = system: HOP-92; assay: Growth inhibition of human HOP92 cells assessed as cell growth at 5X10'-9 M after 48 hrs by sulforhodamine B assay; conditions: HOP-92, 48 h, read-out: Activity
[13] = system: HL-60(TB); assay: Growth inhibition of human HL-60(TB) cells assessed as cell growth at 5X10'-9 M after 48 hrs by sulforhodamine B assay; conditions: HL-60, 48 h, read-out: Activity
[14] = system: SF-539; assay: Growth inhibition of human SF539 cells assessed as cell growth at 5X10'-6 M after 48 hrs by sulforhodamine B assay; conditions: SF-539, 48 h, read-out: Activity
[15] = system: MOLT-4; assay: Growth inhibition of human MOLT4 cells assessed as cell growth at 5X10'-6 M after 48 hrs by sulforhodamine B assay; conditions: MOLT-4, 48 h, read-out: Activity
[16] = Growth inhibition of human Hs 578T cells assessed as cell growth at 5X10'-7 M after 48 hrs by sulforhodamine B assay; conditions: read-out: Activity
[17] = system: BT-549; assay: Growth inhibition of human BT549 cells assessed as cell growth at 5X10'-7 M after 48 hrs by sulforhodamine B assay; conditions: BT-549, 48 h, read-out: Activity
[18] = system: UO-31; assay: Growth inhibition of human UO31 cells assessed as cell growth at 5X10'-7 M after 48 hrs by sulforhodamine B assay; conditions: UO-31, 48 h, read-out: Activity
[19] = system: PC-3; assay: Growth inhibition of human PC3 cells assessed as cell growth at 5X10'-7 M after 48 hrs by sulforhodamine B assay; conditions: PC-3, 48 h, read-out: Activity
[20] = system: A498; assay: Growth inhibition of human A498 cells assessed as cell growth at 5X10'-7 M after 48 hrs by sulforhodamine B assay; conditions: A498, 48 h, read-out: Activity
[21] = system: UACC-257; assay: Growth inhibition of human UACC257 cells assessed as cell growth at 5X10'-7 M after 48 hrs by sulforhodamine B assay; conditions: UACC-257, 48 h, read-out: Activity
[22] = system: U-251; assay: Growth inhibition of human U251 cells assessed as cell growth at 5X10'-7 M after 48 hrs by sulforhodamine B assay; conditions: U-251, 48 h, read-out: Activity
[23] = system: NCI-H226; assay: Growth inhibition of human NCI-H226 cells assessed as cell growth at 5X10'-7 M after 48 hrs by sulforhodamine B assay; conditions: NCI-H226, 48 h, read-out: Activity
[24] = system: RPMI-8226; assay: Growth inhibition of human RPMI8226 cells assessed as cell growth at 5X10'-7 M after 48 hrs by sulforhodamine B assay; conditions: RPMI-8226, 48 h, read-out: Activity
[25] = system: DU-145; assay: Growth inhibition of human DU145 cells assessed as cell growth at 5X10'-8 M after 48 hrs by sulforhodamine B assay; conditions: DU-145, 48 h, read-out: Activity
[26] = system: UACC-257; assay: Growth inhibition of human UACC257 cells assessed as cell growth at 5X10'-8 M after 48 hrs by sulforhodamine B assay; conditions: UACC-257, 48 h, read-out: Activity
[27] = system: SF-295; assay: Growth inhibition of human SF295 cells assessed as cell growth at 5X10'-8 M after 48 hrs by sulforhodamine B assay; conditions: SF-295, 48 h, read-out: Activity
[28] = system: KM12; assay: Growth inhibition of human KM12 cells assessed as cell growth at 5X10'-8 M after 48 hrs by sulforhodamine B assay; conditions: KM12, 48 h, read-out: Activity
[29] = system: SN12C; assay: Growth inhibition of human SN12C cells assessed as cell growth at 5X10'-5 M after 48 hrs by sulforhodamine B assay; conditions: read-out: Activity
[30] = system: UACC-62; assay: Growth inhibition of human UACC62 cells assessed as cell growth at 5X10'-5 M after 48 hrs by sulforhodamine B assay; conditions: UACC-62, 48 h, read-out: Activity
[31] = system: HCT-116; assay: Growth inhibition of human HCT116 cells assessed as cell growth at 5X10'-8 M after 48 hrs by sulforhodamine B assay; conditions: HCT-116, 48 h, read-out: Activity
[32] = system: HCT-15; assay: Growth inhibition of human HCT15 cells assessed as cell growth at 5X10'-8 M after 48 hrs by sulforhodamine B assay; conditions: HCT-15, 48 h, read-out: Activity
[33] = system: NCI-H322M; assay: Growth inhibition of human NCI-H322M cells assessed as cell growth at 5X10'-8 M after 48 hrs by sulforhodamine B assay; conditions: read-out: Activity
[34] = Growth inhibition of human NCI-ADR-RES cells assessed as cell growth at 5X10'-9 M after 48 hrs by sulforhodamine B assay; conditions: read-out: Activity
[35] = system: OVCAR-5; assay: Growth inhibition of human OVCAR5 cells assessed as cell growth at 5X10'-9 M after 48 hrs by sulforhodamine B assay; conditions: OVCAR-5, 48 h, read-out: Activity
[36] = system: UACC-62; assay: Growth inhibition of human UACC62 cells assessed as cell growth at 5X10'-9 M after 48 hrs by sulforhodamine B assay; conditions: UACC-62, 48 h, read-out: Activity

Structure (SMILES)	growth at 50 µM [1]	growth at 50 µM [2]	growth at 50 µM [3]	growth at 50 µM [4]	growth at 5 µM [5]	growth at 5 µM [6]	growth at 5 µM [7]	growth at 5 µM [8]	growth at 5 µM [9]	growth at 5 µM [10]	growth at 0.005 µM [11]	growth at 0.005 µM [12]	growth at 0.005 µM [13]	growth at 5 µM [14]	growth at 5 µM [15]	growth at 0.5 µM [16]	growth at 0.5 µM [17]	growth at 0.5 µM [18]	growth at 0.5 µM [19]	growth at 0.5 µM [20]	other results
O=C(Nc1cccc(-n2cc(-c3ccncc3)c(-c3ccc(Cl)c(O)c3)n2)c1)Nc1cc(C(F)(F)F)cc(C(F)(F)F)c1	-69%	-8%	5%	-18%	-3%	-13%	-54%	-35%	-85%	-94%	101%	83%	115%	-91%	-5%	82%	109%	62%	41%	64%	growth at 0.5 µM [21]: 84%; growth at 0.5 µM [22]: 49%; growth at 0.5 µM [23]: 79%; growth at 0.5 µM [24]: 49%; growth at 0.05 µM [25]: 109%; growth at 0.05 µM [26]: 89%; growth at 0.05 µM [27]: 90%; growth at 0.05 µM [28]: 103%; growth at 50 µM [29]: -48%; growth at 50 µM [30]: -89%; growth at 0.05 µM [31]: 102%; growth at 0.05 µM [32]: 93%; growth at 0.05 µM [33]: 104%; growth at 0.005 µM [34]: 102%; growth at 0.005 µM [35]: 96%; growth at 0.005 µM [36]: 95%
COc1cc(-c2nn(-c3cccc(NC(=O)Nc4ccc(Cl)c(Cl)c4)c3)cc2-c2ccncc2)ccc1Cl	-31%	-26%	-11%	2%	-17%	11%	27%	-22%	1%	-86%	101%	75%	111%	-21%	-4%	83%	97%	65%	53%	80%	growth at 0.5 µM [21]: 83%; growth at 0.5 µM [22]: 72%; growth at 0.5 µM [23]: 82%; growth at 0.5 µM [24]: 45%; growth at 0.05 µM [25]: 110%; growth at 0.05 µM [26]: 88%; growth at 0.05 µM [27]: 88%; growth at 0.05 µM [28]: 104%; growth at 50 µM [29]: 10%; growth at 50 µM [30]: -63%; growth at 0.05 µM [31]: 107%; growth at 0.05 µM [32]: 95%; growth at 0.05 µM [33]: 102%; growth at 0.005 µM [34]: 104%; growth at 0.005 µM [35]: 93%; growth at 0.005 µM [36]: 98%
COc1cc(-c2nn(-c3cccc(NC(=O)Nc4cc(C(F)(F)F)cc(C(F)(F)F)c4)c3)cc2-c2ccncc2)ccc1Cl	-64%	-5%	3%	-8%	-20%	-34%	-36%	-40%	-78%	-96%	102%	77%	100%	-74%	-4%	79%	98%	62%	33%	59%	growth at 0.5 µM [21]: 82%; growth at 0.5 µM [22]: 60%; growth at 0.5 µM [23]: 83%; growth at 0.5 µM [24]: 38%; growth at 0.05 µM [25]: 111%; growth at 0.05 µM [26]: 98%; growth at 0.05 µM [27]: 94%; growth at 0.05 µM [28]: 107%; growth at 50 µM [29]: -45%; growth at 50 µM [30]: -72%; growth at 0.05 µM [31]: 106%; growth at 0.05 µM [32]: 97%; growth at 0.05 µM [33]: 103%; growth at 0.005 µM [34]: 105%; growth at 0.005 µM [35]: 87%; growth at 0.005 µM [36]: 97%
O=C(Nc1cccc(-n2cc(-c3ccncc3)c(-c3ccc(Cl)c(O)c3)n2)c1)c1ccc(N2CCOCC2)c(C(F)(F)F)c1	1%	8%	-14%	14%	29%	94%	111%	57%	5%	31%	93%	85%	98%	21%	32%	84%	111%	112%	85%	89%	growth at 0.5 µM [21]: 90%; growth at 0.5 µM [22]: 94%; growth at 0.5 µM [23]: 99%; growth at 0.5 µM [24]: 83%; growth at 0.05 µM [25]: 97%; growth at 0.05 µM [26]: 104%; growth at 0.05 µM [27]: 98%; growth at 0.05 µM [28]: 93%; growth at 50 µM [29]: 39%; growth at 50 µM [30]: -30%; growth at 0.05 µM [31]: 97%; growth at 0.05 µM [32]: 99%; growth at 0.05 µM [33]: 104%; growth at 0.005 µM [34]: 97%; growth at 0.005 µM [35]: 98%; growth at 0.005 µM [36]: 98%
COc1cc(-c2nn(-c3cccc(NC(=O)Nc4cccc(C(F)(F)F)c4)c3)cc2-c2ccncc2)ccc1Cl	-63%	-16%	-8%	3%	-19%	10%	5%	-42%	-18%	-97%	95%	93%	90%	-36%	-14%	80%	91%	61%	44%	73%	growth at 0.5 µM [21]: 83%; growth at 0.5 µM [22]: 67%; growth at 0.5 µM [23]: 84%; growth at 0.5 µM [24]: 40%; growth at 0.05 µM [25]: 101%; growth at 0.05 µM [26]: 98%; growth at 0.05 µM [27]: 91%; growth at 0.05 µM [28]: 97%; growth at 50 µM [29]: -7%; growth at 50 µM [30]: -87%; growth at 0.05 µM [31]: 99%; growth at 0.05 µM [32]: 94%; growth at 0.05 µM [33]: 92%; growth at 0.005 µM [34]: 99%; growth at 0.005 µM [35]: 84%; growth at 0.005 µM [36]: 95%
